This is an account of results in patent publication US9422248B2 (University of Iowa Research Foundation, priority 2012, dated 2016).

For one series, the system named is seizures. The series is described as follows: anticonvulsant properties (model not stated). To be noted: in vivo.
Series [1] deals with 6 Hz (32 mA) model. To be noted: cited from earlier work; for anticonvulsant activity in the 6 Hz model: mouse 6 Hz (32 mA), previously shown; for ED50: 6 Hz model, earlier work.
Series [2] deals with maximal electroshock (MES) model. To be noted: mouse; previously demonstrated; cited from earlier work.
Series [3] concerns scMET model (pentylenetetrazole, Metrazol). The following applies: mouse; previously demonstrated; cited from earlier work.
Series [4] concerns 6 Hz (32 mA) model. The experiment in a line: 6 Hz (32 mA) psychomotor seizure model of partial epilepsy. Format: in vivo, mouse. The following applies: mouse, in vivo. From the text:
(§1) All compounds (FIG. 1) were screened in three whole mouse models: the maximal electroshock model (MES), the scMET test (pentylenetetrazole, Metrazol), and the 6 Hz psychomotor seizure model of partial epilepsy (32 mA). Adult male CF No 1 albino mice (26-30 g) were used for the 6 Hz test and 18-25 g mice were used in the MES and scMet tests. The animals are housed, fed, and handled in a manner consistent with the recommendations in the National Council Publication, “Guide for the Care and Use of Laboratory Animals”. The animal studies were performed by the NINDS Anticonvulsant Screening Program under IACUC number 09-12014. All compounds were administered ip in polyethylene glycol, 30%.
The 6 Hz test (also known as the minimal clonic seizure, or psychomotor test) involved delivering a corneal stimulus of 32 mA for 3 s. This current elicits psychomotor seizures in 97% of untreated animals. Seizures consist of a minimal clonic phase followed by stereotyped automatistic behaviors. Animals not showing such behaviors were considered protected. Toxicity was determined by the rotorod test. For this test, the animal is placed on a rotorod at 6 rpm following dosing. The animal is considered toxic if it falls off the rotorod three times in a 1 min period. The ED50, TD50 and confidence intervals were determined by probit analysis.

Series [5] deals with scMET model (pentylenetetrazole, Metrazol). The experiment in a line: scMET test (subcutaneous Metrazol). Format: in vivo, mouse. The following applies: for responders at 30 mg/kg / responders at 100 mg/kg / responders at 300 mg/kg: Mus musculus, scMET, read-out: number of animals protected/number of animals tested; for responders at 30 mg/kg: 30 mg/kg ip; for responders at 100 mg/kg: 100 mg/kg ip; for responders at 300 mg/kg: 300 mg/kg ip.
From the text: as §1
(§2) The MES model, which generates generalized tonic-clonic seizures, involved pretreating mice with experimental compound, and administering 60 Hz of alternating current (50 mA) for 2 s via corneal electrodes. Prior to current administration, the animal's corneas were treated topically with 1% tetracaine. Animals are considered protected if the hindlimb tonic extensor component is absent. The scMET test was done by pretreating mice with experimental compound and administering 85 mg/kg Metrazol into the loose folds of the skin in the midline of the neck. Eighty-five mg/kg Metrazol is the dose that causes seizures in 97% (CD97) of control animals.

A further series deals with rotorod test. The experiment in a line: Toxicity by the rotorod test. Format: in vivo. An excerpt:
All compounds (FIG. 1) were screened in three whole mouse models: the maximal electroshock model (MES), the scMET test (pentylenetetrazole, Metrazol), and the 6 Hz psychomotor seizure model of partial epilepsy (32 mA). Adult male CF No 1 albino mice (26-30 g) were used for the 6 Hz test and 18-25 g mice were used in the MES and scMet tests. The animals are housed, fed, and handled in a manner consistent with the recommendations in the National Council Publication, “Guide for the Care and Use of Laboratory Animals”. […] All compounds were administered ip in polyethylene glycol, 30%.
The 6 Hz test (also known as the minimal clonic seizure, or psychomotor test) involved delivering a corneal stimulus of 32 mA for 3 s. […] Seizures consist of a minimal clonic phase followed by stereotyped automatistic behaviors. Animals not showing such behaviors were considered protected. Toxicity was determined by the rotorod test. For this test, the animal is placed on a rotorod at 6 rpm following dosing. The animal is considered toxic if it falls off the rotorod three times in a 1 min period. The ED50, TD50 and confidence intervals were determined by probit analysis.
A general note: The rotarod test checks motor coordination on a turning rod.

Series [6] deals with maximal electroshock (MES) model. The series is described as follows: maximal electroshock (MES) model. Format: in vivo, mouse. To be noted: for responders at 30 mg/kg / responders at 100 mg/kg / responders at 300 mg/kg: Mus musculus, MES; for responders at 30 mg/kg: 30 mg/kg ip; for responders at 30 mg/kg / responders at 300 mg/kg: read-out: number of animals protected/number of animals tested; for responders at 100 mg/kg: 100 mg/kg ip, read-out: number of animals protected/number of animals tested (converted); for responders at 300 mg/kg: 300 mg/kg ip.
From the text: as §1, §2

The nature of series [7]: analgesic properties (test not described).

Entries after “also recorded” stand apart in the source; their conditions may differ. Read-outs that look alike come from different tables or passages of the source.

As for `CC(C)c1nc(C(O)C(F)(F)F)ccc1O` (stereo not drawn) [Compound 20, 2-isopropyl-6-(2,2,2-trifluoro-1-hydroxyethyl)pyridin-3-ol], in the series on seizures, the anticonvulsant properties result is recorded as “anticonvulsant properties”.
As to `Cc1cc(C(O)C(F)(F)F)cc(C)c1O` (stereo not drawn) [DMPF], the “anticonvulsant activity in the 6 Hz model” value (from here on “anticonvulsant activity”) in the series with 6 Hz (32 mA) model [1] was “lack of activity”.
One may read the ED50 as the dose that gives a 50% effect, or the effect in half of the subjects. On to `CC(C)c1cc(C(O)C(F)(F)F)cc(C(C)C)c1O` (stereo not drawn) [MB003], for which the “protective effects in the MES model” value in [2] is recorded as “little to no protective effects”. Further, the “protective effects in the scMET model” value in [3] was “little to no protective effects”. In the series on 6 Hz (32 mA) model [1], the ED50 is listed as 38.6 mg/kg and the “anticonvulsant activity” value is recorded as “good anticonvulsant activity; also recorded: protective”.
Turning to `CCC(C)c1cc(C(O)C(F)(F)F)cc(C(C)CC)c1O` (stereo not drawn) [MB050], in the series with 6 Hz (32 mA) model [1], the ED50 is 73 mg/kg and the “anticonvulsant activity” value is recorded as “good anticonvulsant activity”.
Regarding `CCCc1cc(C(O)C(F)(F)F)ccc1O` (stereo not drawn) [RM1208, 2-n-Propyl-4-(2,2,2-trifluoro-1-hydroxy-ethyl)-phenol], in the series on 6 Hz (32 mA) model [4], the “antiseizure activity in the 6 Hz model” value is “not an active compound”. Also, the “scMET protection, time points after dosing” value in series [5] (300 mg/kg dose) is on record as “at 0.5 h only”. The responders at 30 mg/kg in series [5] (0.5 h), in series [5] (4 h), in series [6] (0.25 h), in [6] (0.5 h), in series [6] (1 h) and in series [6] (2 h) was 0% in each case. In addition, the responders at 30 mg/kg in series [6] (4 h) and in series [6] (6 h) was 0% each time. Also, the responders at 100 mg/kg in series [5] (0.5 h), in [5] (4 h), in [6] (0.5 h) and in series [6] (4 h) was 0% in each case. The responders at 300 mg/kg in series [5] (0.5 h) was found to be 100%; in series [5] (4 h), 0%; in [6] (0.5 h) it was 100%; in [6] (4 h) it was 100%. In addition, the “Toxicity, animals/number of animals tested” value in the series on rotorod test (dose 100 mg/kg ip, 0.25 h) was 0/2; with rotorod test (dose 100 mg/kg ip, 0.5 h) it was 0/8; in the series with rotorod test (dose 100 mg/kg ip, 1 h), 0/3; in the series with rotorod test (dose 100 mg/kg ip, 2 h), 0/3; in the series with rotorod test (dose 100 mg/kg ip, 4 h) it was 0/4; in the series on rotorod test (dose 100 mg/kg ip, 6 h) it was 0/3. Moreover, the “Toxicity, animals/number of animals tested” value is 0/4 with rotorod test (dose 30 ip, 0.5 h); 0/2 with rotorod test (dose 30 ip, 4 h); 3/4 with rotorod test (dose 300 ip, 0.5 h); 0/2 in the series with rotorod test (dose 300 ip, 4 h). Also, the “MES protection” value in series [6] (300 mg/kg dose) was “some protection”. Moreover, the “MES protection, time points after dosing” value in series [6] (300 mg/kg dose) is “protection at both 0.5 and 4 h”.
As for `CC(C)c1cc(C(O)C(F)(F)F)cc(Br)c1O` (stereo not drawn) [compound 10], in series [7], the analgesic properties result was “analgesic properties”.
